Measurements as given in BindingDB's records for doi:10.1021/acs.jnatprod.8b00318 (Indian Institute of Integrative Medicine (Csir), 2019).

Key:
[1] = target: Prostaglandin G/H synthase 2 (Homo sapiens) (UniProt P35354); assay: Inhibition of COX2 (unknown origin) assessed as reduction in prostaglandin E2 production incubated for 10 mins before arachidonic acid addition and measured after 25 mins by LC-MS/MS analysis
[2] = target: Prostaglandin G/H synthase 1 (Ovis aries) (UniProt P05979); assay: Inhibition of ovine COX1 assessed as reduction in prostaglandin E2 production incubated for 10 mins before arachidonic acid addition and measured after 25 mins by LC-MS/MS analysis

Prostaglandin G/H synthase 2 (Homo sapiens), sequence (P35354 whole entry, looked up): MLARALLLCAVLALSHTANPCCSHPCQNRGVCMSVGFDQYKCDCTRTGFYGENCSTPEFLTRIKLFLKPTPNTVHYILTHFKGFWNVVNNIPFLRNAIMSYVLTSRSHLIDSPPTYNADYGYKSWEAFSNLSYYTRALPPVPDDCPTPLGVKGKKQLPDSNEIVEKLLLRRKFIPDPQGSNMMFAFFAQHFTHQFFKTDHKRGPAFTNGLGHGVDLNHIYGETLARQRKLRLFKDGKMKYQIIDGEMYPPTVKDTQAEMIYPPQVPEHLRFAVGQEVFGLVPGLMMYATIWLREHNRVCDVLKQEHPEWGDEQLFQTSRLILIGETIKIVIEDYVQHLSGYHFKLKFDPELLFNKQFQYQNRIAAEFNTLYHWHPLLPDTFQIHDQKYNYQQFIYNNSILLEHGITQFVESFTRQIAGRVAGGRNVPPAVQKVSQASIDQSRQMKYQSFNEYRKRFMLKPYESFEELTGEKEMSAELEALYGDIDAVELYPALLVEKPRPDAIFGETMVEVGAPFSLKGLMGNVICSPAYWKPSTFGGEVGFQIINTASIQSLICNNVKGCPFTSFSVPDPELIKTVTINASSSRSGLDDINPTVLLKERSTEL

SMILES: COC(=O)[C@@H](C)c1ccc2c(C)cc(O)c(C)c2c1
- IC50 [1]: 66.1 µM
- IC50 [2]: 31 µM
